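96-well plates; 48 h exposure; 5 concentrations. Endpoints by linear interpolation between flanking doses. Not reached: highest tested concentration assigned. GI50 = concentration required for 50% inhibition of growth. TGI denotes the concentration required for complete inhibition of growth.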
Key:
Assay in all cases: growth of human tumour cells (NCI), 48 h
SNB-75 CNS = system: SNB-75 CNS
MOLT-4 leukemia = system: MOLT-4 leukemia
UO-31 renal = system: UO-31 renal
SF-268 CNS = system: SF-268 CNS
RPMI-8226 leukemia = system: RPMI-8226 leukemia
HT29 colon = system: HT29 colon
IGROV1 ovarian = system: IGROV1 ovarian
A549 NSCLC = system: A549 NSCLC
MDA-MB-231 breast = system: MDA-MB-231 breast
MDA-MB-435 = system: MDA-MB-435

Compound	TGI (SNB-75 CNS) [µM]	TGI (MOLT-4 leukemia) [µM]	TGI (UO-31 renal) [µM]	TGI (SF-268 CNS) [µM]	TGI (RPMI-8226 leukemia) [µM]	TGI (HT29 colon) [µM]	TGI (IGROV1 ovarian) [µM]	TGI (A549 NSCLC) [µM]	GI50 (MOLT-4 leukemia) [µM]	GI50 (UO-31 renal) [µM]	GI50 (MDA-MB-231 breast) [µM]	TGI (MDA-MB-231 breast) [µM]	GI50 (SF-268 CNS) [µM]	GI50 (MDA-MB-435) [µM]	TGI (MDA-MB-435) [µM]	GI50 (RPMI-8226 leukemia) [µM]	GI50 (HT29 colon) [µM]	GI50 (IGROV1 ovarian) [µM]	GI50 (A549 NSCLC) [µM]	GI50 (SNB-75 CNS) [nM]
Cn1c(=O)c2[nH]cnc2n(CC(N)=O)c1=O	> 100	> 100	> 100	> 100	> 100	> 100	> 100	> 100												
COC1C2c3cc4c(cc3CC(C#N)(c3ccccc32)N1C(=O)c1ccccc1)OCO4 (configuration not stated)	> 100	> 100	> 100	> 100	> 100	> 100	> 100													
COC1OC(C)C2OC(C)(C)OC2C1OC(C)=O (configuration not stated)		> 100		> 100	> 100	> 100	> 100	> 100												
CCOC(=O)C(CNc1ccc(O)cc1)NC(=O)c1ccccc1 (configuration not stated)	> 100	> 100	> 100	> 100	> 100	> 100	> 100	> 100												
CCOC(=O)c1cnn2c3ccccc3n(S(=O)(=O)c3ccc(OC)cc3)c12		> 100	> 78.7	> 100	28.2	> 100	> 100	> 100	0.389	0.56	0.889	> 100	2.33	0.0473	> 100	0.37	0.31	0.478	0.483	
O=C1c2ccccc2C(=O)c2c(NCC3CO3)ccc(NCC3CO3)c21 (configuration not stated)	> 100	0.53	5.13		33.3	12.8	15.9	58.8				14.8			2.58					
NCCCCCCNCc1cccc2ccccc12	> 100	> 100	> 100		> 100	> 100	> 100	> 100												
O=C(N/N=C/c1cc(Cl)cc(Cl)c1[O-])c1ccccc1.O=C(N/N=C/c1cc(Cl)cc(Cl)c1[O-])c1ccccc1.[Co+2]	> 100	21.4	73.3		> 100	> 100	> 100	> 100	4.43	16.8						13.4	49.5	27.8	28.8	25300
C/C=C/COC(=O)CO[N+](=O)[O-]	> 100	> 100	> 100	> 100	> 100	> 100	> 100	> 100												
CCN1C[C@]2(COC)[C@H](O)C[C@H](OC)[C@]34C1[C@H]([C@H](OC)[C@H]23)[C@]1(OC(C)=O)[C@H]2[C@@H](OC(=O)c3ccccc3)[C@](O)(C[C@H]24)[C@@H](OC)[C@@H]1O	> 100		> 100	> 100		> 100	> 100	> 100				> 100			> 100					
NNC(=O)c1ccc(OCc2nc3ccccc3[nH]2)cc1		> 100	> 100	> 100	> 100	> 100	> 100	> 100				> 100			> 100					
COc1cc2c(=O)n(CCN(C)C)c3c4cc5c(cc4ccc3c2cc1OC)OCO5	5.05	0.648	0.48		0.8	5.43	2.55		0.127	0.119	0.824	3.53	0.222	0.329	1.29	0.159	0.178	0.257		230
Cc1ccc(C)c(NC(=O)CC2SC(=Nc3ccccc3Cl)NC2=O)c1 (configuration not stated)	> 100	> 100	> 100	> 100		> 100	> 100	> 100												
CCCCCCCCCCCCCC(=O)CSCCNC(=O)CCNC(=O)[C@@H](O)C(C)(C)COP(=O)(O)OP(=O)(O)OCC1OC(n2cnc3c(N)ncnc32)C(O)C1OP(=O)(O)O (some centres not stated)	18.2		27.6	47.7		45.3	28.6	45.9												
CC12CCC3c4cc(Br)c(O)c(Br)c4CCC3C1CCC2O (configuration not stated)	37.5	42.2	46.8	49.6		29.1	34	40.9				27.4			18.7					
CCN(CC)CCn1[nH]c2c3ccc(=O)cc3sc3c(NCCN)ccc1c32	3.61	0.383	52.1	> 100	1.97	6.2	8.57	14.5												
COc1ccc(Cn2cc3c(c2-c2ccccc2)CCc2cnoc2-3)cc1N	0.777	> 96.1	> 100	> 100		15.1	> 100	> 100	0.398	0.967	1.03	> 100	0.812			0.31	1.78	0.329	0.224	114
CCOC(=O)/C(=C/c1ccc(N(CCC#N)CCC#N)cc1C)NC(=O)/C=C/c1ccccc1	> 100	> 100	> 100	> 100	> 100	> 100	> 100	> 100												
CCOc1ccc(O)cc1[P+](c1ccccc1)(c1ccccc1)c1ccccc1	25.6		52.5	> 100	26.5	17.6		43.2												
COc1ccccc1NS(=O)(=O)c1ccc2oc(SC(C)C)nc2c1	84.3	39.7	70.3	> 100	24.4	64.1		88.6	5.23	18.4	12.4	52	29.5	18.7	94	2.4	22.2		16.3	27400

Compound	TGI (SNB-75 CNS) [µM]	TGI (MOLT-4 leukemia) [µM]	TGI (UO-31 renal) [µM]	TGI (SF-268 CNS) [µM]	TGI (RPMI-8226 leukemia) [µM]	TGI (HT29 colon) [µM]	TGI (IGROV1 ovarian) [µM]	TGI (A549 NSCLC) [µM]	GI50 (MOLT-4 leukemia) [µM]	GI50 (UO-31 renal) [µM]	GI50 (MDA-MB-231 breast) [µM]	TGI (MDA-MB-231 breast) [µM]	GI50 (SF-268 CNS) [µM]	GI50 (MDA-MB-435) [µM]	TGI (MDA-MB-435) [µM]	GI50 (RPMI-8226 leukemia) [µM]	GI50 (HT29 colon) [µM]	GI50 (IGROV1 ovarian) [µM]	GI50 (A549 NSCLC) [µM]	GI50 (SNB-75 CNS) [nM]
Cc1cc(=O)[nH]c(CNC(=O)c2cccc(C(=O)NCc3cc(=O)[nH]c(C)n3)c2)n1	> 100	> 100	> 100	> 100	> 100	> 100	> 100	> 100												
COC(=O)/C=c1\s/c(=C\C(=O)OC)c2ccccc12	> 100	> 100	> 100	> 100	> 100	> 100	> 100	> 100												
CN(/N=C/c1cccc2cccnc12)c1c([N+](=O)[O-])cc([N+](=O)[O-])cc1[N+](=O)[O-]	> 100	> 100		> 100	> 100	> 100	> 100	> 100												
c1ccc(P(=C2c3ccccc3-c3ccccc32)(c2ccccc2)c2ccccc2)cc1	83.8		70.7	69		10.4	> 100	29.6												
Cc1cc(Cl)ccc1Nc1nc(C(F)(F)F)ccc1C(=O)N/N=C/c1ccccc1Cl	> 29.3	> 100	4.15	6.05		> 41.9	> 42.2	11.6	1.29	1.29	1.13	5.53	0.811	2.29	20.9		2.01	1.57	1.77	2290
Cc1nc2sccn2c1C(=O)NC(=O)Nc1ccc(Cl)cc1	50.8	> 100	> 100	> 100	> 100	> 100	> 100	> 100												
O=C(CCc1nnc2s/c(=C\c3ccccc3Cl)c(=O)n12)Nc1cc(Cl)ccc1Cl		> 100	> 100	> 100	> 100	> 100	> 100	> 100												
C=CCOC(=O)C1CCC(=O)N1C(=O)C(Cl)Cl (configuration not stated)	> 100	> 100	> 100	> 100	> 100	> 100	> 100	> 100												
CN(C)CCNC(=O)c1cccc2ccc(-c3ccc(-c4ccccc4)cc3)nc12	6.11	5.16	24.7	10.4		3.72	> 44.9	7.66												
CNS(=O)(=O)OCC1OC(n2cnc3c(N)ncnc32)C(O)C1O (configuration not stated)	> 100		> 100	> 100	> 100	> 100	> 100	> 100		> 100	> 100	> 100	> 100	> 100	> 100	> 100	> 100	> 100	> 100	> 100000
O=C(C/C(CCC(=O)N(Cc1ccccc1)Cc1ccccc1)=N/Nc1ccc([N+](=O)[O-])cc1[N+](=O)[O-])c1ccccc1	> 100	73.9	> 100	> 100	> 100	> 100	> 100	> 100												
COc1cc2c(cc1C1=NC(C)(C)CO1)OCO2	> 100	> 100	> 100	> 100	> 100	> 100	> 100	> 100												
COc1ccc(Nc2nc3cc(N)cc(N)c3nc2-c2ccccc2)cc1OC		> 100	> 100	47.1	28.3	52.7	> 100	> 100	6.91	28.1	4.92	18.5	14.2	16.3	32.1	7.95	25.2	24.8	35.2	
COc1ccc(N(/C=C/C(=O)C(F)(F)F)CC(=O)c2ccc(Cl)cc2)cc1		55.5	28.6	34.9	44.7	95.6	21.7	87.8	15.4	13.4	10.4	24.4	16.3	5.68	22	13.4	25	6.14	29.6	
CC[N+](C)(CC)CC(C)(C)C(=O)/C=C/c1ccc(/C=C/C(=O)C(C)(C)C[N+](C)(CC)CC)cc1	> 100	> 100	> 100	> 100	> 100	> 100	> 100	> 100												
N#Cc1ccc2cc3c(cc2c1)OCO3	74.3	> 100	89.3	> 100	> 100	> 100	> 100													
O=C1c2ccccc2C(=O)c2sc(Nc3ccccc3Cl)nc21	27.1	11.1	24.4	23.7	10.6	45.4	28.3	46.2				13.7								
COc1cc(-n2ccnc2)cc(OC)c1OC		> 100	> 100	> 100	> 100	> 100	51.6	> 100	42.2	21.4	79	> 100	37.9	75.6	> 100	75.6	> 100	11.1	95.1	
Nc1nc(=O)n([C@@H]2CS[C@H](CO)O2)cc1F		> 100	> 100	> 100	> 100	> 100	> 100	> 100	> 100	> 100	> 100	> 100	> 100	> 100	> 100	> 100	> 100	> 100	> 100	
CC1NC(=O)C2=C1C(N)=NC(=O)C2 (configuration not stated)	> 100	> 100	> 100	> 100	> 100		> 100	> 100												
